Laboratory results as given in PubChem BioAssay (NCI).
Several values for one entry are separate records, joined by “and”; a condition that tells them apart may be missing. Equal values may be shown once.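 Values below derive from 48-hour exposures of cells grown in 96-well plates, with endpoints linearly interpolated between the two concentrations bracketing the appropriate inhibition level. GI50: concentration for 50% inhibition of growth. TGI: concentration producing complete growth inhibition.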

Columns and labels:
Assay in all cases: NCI tumour cell line growth inhibition, 48 h
[1] = system: DMS 114 small cell lung
[2] = system: DMS 273 small cell lung
[3] = system: HOP-18 NSCLC
[4] = system: KM20L2 colon
[5] = system: LXFL 529 NSCLC
[6] = system: M19-MEL melanoma
[7] = system: XF 498 CNS
[8] = system: MDA-N
[9] = system: RXF-631 renal
[10] = system: P388 leukemia
[11] = system: P388/ADR leukemia

## C/C(=N/Nc1ccc([N+](=O)[O-])cc1[N+](=O)[O-])C(CC(C(=O)Nc1ccccc1C)/C(C)=N\Nc1ccc([N+](=O)[O-])cc1[N+](=O)[O-])C(=O)Nc1ccccc1C (centres undefined)
[1]
  TGI: 17.7 µM
[2]
  TGI: 41.7 µM
[3]
  TGI: 28.9 µM
[4]
  TGI: > 88.3 µM
[5]
  TGI: 27.9 µM
[6]
  TGI: 28.1 µM
[7]
  TGI: 33.8 µM

## O=C1c2ccccc2C(=O)c2c1ccc1c3ccccc3n(Cc3ccccc3)c21
[1]
  TGI: > 100 µM
[3]
  TGI: 0.0908 µM
[5]
  TGI: > 100 µM
[6]
  TGI: > 100 µM
[7]
  TGI: > 100 µM

## O=[N+]([O-])O.[NH-]C1CCCCC1[NH-].[NH-]C1CCCCC1[NH-].[NH-]C1CCCCC1[NH-].[OH-].[OH-].[OH-].[Pt+4].[Pt+4].[Pt+4] (centres undefined)
[8]
  GI50: 0.205 µM
  TGI: 6.74 µM

## O=C1/C(=C/c2ccccc2)CN(C(=O)OCC(Cl)(Cl)Cl)C/C1=C\c1ccccc1
[1]
  TGI: 4.08 µM
[2]
  TGI: 3.27 µM
[3]
  TGI: 9.82 µM
[4]
  TGI: 7.68 µM
[5]
  TGI: 3.94 µM
[6]
  TGI: 2.79 µM

## CC[C@@]1(O)C(=O)OCc2c1cc1n(c2=O)Cc2cc3c(NC(C)=O)c(O)ccc3nc2-1
[1]
  GI50: 0.353 µM
  TGI: 7.58 µM
[2]
  GI50: 0.296 µM
  TGI: 8.33 µM
[3]
  GI50: 7.57 µM
  TGI: > 100 µM
[4]
  GI50: 16.3 µM
  TGI: > 100 µM
[5]
  GI50: 12.5 µM
  TGI: > 100 µM
[6]
  GI50: 4.93 µM
  TGI: 43.7 µM
[9]
  GI50: 4.47 µM
  TGI: > 100 µM
[7]
  GI50: 5.39 µM
  TGI: 51 µM

## CCN1CC2(C)CC[C@@H](OC)C34[C@@H]2[C@H](OC(C)=O)C2(OCO[C@@]25C[C@H](OC)C2C[C@]3(O)[C@@H]5[C@H]2O)[C@H]14
[1]
  TGI: > 100 µM
[4]
  TGI: > 100 µM
[5]
  TGI: > 100 µM
[6]
  TGI: > 100 µM

## CN1c2ccccc2C(=O)Nc2cnc(Cl)nc21
[8]
  TGI: > 100 µM

## Cc1cccc(CC(C)(C)C)c1NC(=O)C(=O)C(C(=O)c1ccc2ccccc2c1)C1OC(=O)c2ccccc21 (centres undefined)
[1]
  TGI: 56.7 µM
[6]
  TGI: 64.1 µM

## O=C(OCc1nc2ccc(Br)cc2c(=O)n1-c1ccccc1)c1ccccc1O
[4]
  TGI: > 100 µM
[5]
  TGI: > 100 µM
[6]
  TGI: > 100 µM
[7]
  TGI: > 100 µM

## CCC1NCC(=O)c2c1[nH]c1ccccc21 (centres undefined)
[1]
  TGI: > 100 µM
[2]
  TGI: > 100 µM
[3]
  TGI: > 100 µM
[4]
  TGI: > 100 µM
[5]
  TGI: > 100 µM
[6]
  TGI: > 100 µM

## COC(=O)C(=O)C(C(=O)C(=O)Nc1ccccc1C(N)=O)c1nc2ccc(C(=O)c3ccccc3)cc2[nH]c1=O (centres undefined)
[1]
  TGI: > 100 µM
[2]
  TGI: > 100 µM
[3]
  TGI: > 100 µM
[4]
  TGI: > 100 µM
[5]
  TGI: > 100 µM
[6]
  TGI: > 100 µM
[9]
  TGI: > 100 µM
[7]
  TGI: > 100 µM

## COc1ccccc1NC(=O)C(=O)C1C(=O)Nc2ccccc2S1=O (centres undefined)
[1]
  TGI: > 100 µM
[2]
  TGI: > 100 µM
[3]
  TGI: > 100 µM
[4]
  TGI: > 100 µM
[5]
  TGI: > 100 µM
[6]
  TGI: > 100 µM
[9]
  TGI: > 100 µM
[7]
  TGI: > 100 µM

## O=C1/C(=C/c2ccccc2)CN(C(=O)Oc2ccc([N+](=O)[O-])cc2)C/C1=C\c1ccccc1
[1]
  GI50: 1.68 µM
  TGI: 4.63 µM and 3.84 µM
[2]
  GI50: 1.22 µM
  TGI: 2.94 µM and 3.17 µM
[4]
  GI50: 3.9 µM
  TGI: 8.2 µM
[5]
  GI50: 1.41 µM
  TGI: 5.41 µM and 2.9 µM
[6]
  GI50: 1.26 µM
  TGI: 3.56 µM and 2.75 µM

## CCOC(=N)CC(=O)NC(C)c1ccccc1 (centres undefined)
[2]
  TGI: > 100 µM
[3]
  TGI: > 100 µM
[4]
  TGI: > 100 µM
[5]
  TGI: > 100 µM
[6]
  TGI: > 100 µM
[9]
  TGI: > 100 µM
[7]
  TGI: > 100 µM

## O=C(CC(C(=O)O)N1CCOCC1)c1ccccc1 (centres undefined)
[8]
  TGI: 36.8 µM

## CCCCCCCCCCCCCCCC(=O)OCC1OC(n2ccc(N)nc2=O)C(O)C1O (centres undefined)
[2]
  TGI: > 100 µM
[3]
  TGI: > 100 µM
[4]
  TGI: > 100 µM
[5]
  TGI: > 100 µM
[6]
  TGI: > 100 µM
[8]
  TGI: > 100 µM
[7]
  TGI: > 100 µM

## C=C(C)[C@]12CC(C)C34OC(/C=C\C=C\CCCCCCCCC)(O[C@@H]1[C@@H]3[C@@H]1O[C@]1(CO)[C@@H](O)[C@]1(O)C(=O)C(C)=C[C@@H]41)O2 (some centres undefined)
[8]
  GI50: 0.000167 µM
  TGI: 19 µM

## CCCCCCCCCCCCCCCC(=O)N[C@H]1CCc2cc(OC)c(OC)c(OC)c2-c2ccc(SC)c(=O)cc21
[3]
  TGI: 36.9 µM
[4]
  GI50: 1.59 µM
  TGI: 0.344 µM and 3.4 µM
[5]
  GI50: 1.55 µM
  TGI: 9.54 µM and 4.92 µM
[6]
  GI50: 3.15 µM
  TGI: 13.6 µM and 13.7 µM
[7]
  GI50: 2.18 µM
  TGI: 8.5 µM and 8.63 µM

## COc1cc(C2c3cc4c(cc3[C@@H](Nc3cccc(O)c3)C3COC(=O)[C@H]23)OCO4)cc(OC)c1O (some centres undefined)
[1]
  GI50: 0.49 µM
  TGI: 5.21 µM
[2]
  GI50: 0.404 µM
  TGI: 6 µM
[3]
  TGI: 33 µM
[4]
  TGI: 17.6 µM
[5]
  GI50: 0.85 µM
  TGI: 24.9 µM
[6]
  GI50: 0.747 µM
  TGI: 18.9 µM
[8]
  TGI: 20.5 µM
[10]
  TGI: 0.507 µM
[11]
  TGI: 1.65 µM
[7]
  GI50: 0.52 µM
  TGI: 0.985 µM and 8.34 µM

## CCOC(=O)NNC(=O)NC12CC3CC(CC(C3)C1)C2
[1]
  TGI: > 100 µM
[2]
  TGI: > 100 µM
[3]
  TGI: > 100 µM
[4]
  TGI: > 100 µM
[5]
  TGI: > 100 µM
[6]
  TGI: > 100 µM
[7]
  TGI: > 100 µM

## O=C1CC2Sc3ccccc3N=C2N1c1ccc(Cl)cc1Cl (centres undefined)
[1]
  TGI: > 100 µM
[3]
  TGI: > 100 µM
[4]
  TGI: > 100 µM
[5]
  TGI: > 100 µM
[6]
  TGI: > 100 µM
[9]
  TGI: > 100 µM
[7]
  TGI: > 100 µM

## CCCCCCCCC(=O)NCCCNCCCNC(=O)CCCCCCCC
[1]
  TGI: 8.79 µM
[2]
  TGI: 6.03 µM
[3]
  TGI: 26.6 µM
[4]
  TGI: 6.31 µM
[5]
  TGI: 7.79 µM
[6]
  TGI: 8.38 µM
[7]
  TGI: 9.22 µM

## Clc1ccccc1C1=NN(c2ccccc2)C2c3cc(Br)ccc3OCC12 (centres undefined)
[1]
  TGI: > 100 µM
[2]
  TGI: > 100 µM
[3]
  TGI: > 100 µM
[4]
  TGI: > 100 µM
[5]
  TGI: > 100 µM
[6]
  TGI: > 100 µM
[7]
  TGI: > 100 µM

## CC[C@@]1(OC(=O)CN(C)C)C(=O)OCc2c1cc1n(c2=O)Cc2cc3ccccc3nc2-1
[1]
  TGI: 1.53 µM
[2]
  TGI: 0.149 µM
[3]
  GI50: 0.113 µM
[4]
  TGI: 4.94 µM
[5]
  GI50: 0.577 µM
  TGI: 5.02 µM and 3.35 µM
[6]
  GI50: 0.101 µM
  TGI: 2.13 µM and 1.09 µM
[8]
  TGI: 1.92 µM and 3.8 µM
[7]
  TGI: 3.19 µM

## Cc1ns/c(=N\C(=S)N(C)C)n1C
[1]
  TGI: > 100 µM
[2]
  TGI: > 100 µM
[3]
  TGI: > 100 µM
[4]
  TGI: > 100 µM
[5]
  TGI: > 100 µM
[9]
  TGI: > 100 µM
[7]
  TGI: > 100 µM

## Cc1cc(N)c2ccccc2[n+]1CCCCCCCCCC[n+]1c(C)cc(N)c2ccccc21
[8]
  GI50: 2.13 µM
  TGI: 6.08 µM and 6.72 µM

## Nc1ccc2c(c1)CN1C(=O)c3ccccc3C1=N2
[1]
  TGI: > 125 µM
[2]
  TGI: > 125 µM
[3]
  TGI: > 125 µM
[4]
  TGI: > 125 µM
[6]
  GI50: 54.8 µM
  TGI: > 125 µM
[8]
  TGI: > 125 µM
[10]
  TGI: > 125 µM
[11]
  TGI: > 125 µM

## N#CC(=C=[N-])[n+]1ccc(Cl)cc1
[1]
  TGI: 26.9 µM
[2]
  TGI: 46.2 µM
[4]
  TGI: 65.4 µM
[5]
  TGI: 27.6 µM
[6]
  TGI: 27.8 µM
[9]
  TGI: 52.5 µM
[7]
  TGI: 33.4 µM

## CCCOc1c2cc(COC3OC(CO)C(O)C(O)C3O)cc1Cc1cc(COC3OC(CO)C(O)C(O)C3O)cc(c1OCCC)Cc1cc(COC3OC(CO)C(O)C(O)C3O)cc(c1OCCC)Cc1cc(COC3OC(CO)C(O)C(O)C3O)cc(c1OCCC)C2 (centres undefined)
[8]
  GI50: > 100 µM and 18.4 µM
  TGI: > 100 µM and 34.8 µM

## N#CC1(C#N)C2C=CC(C3CCC=C32)C1(C#N)C#N (centres undefined)
[8]
  TGI: > 10 µM

## O=C1c2cccc3cccc(c23)C(=O)N1CCCN1CCN(CCCN2C(=O)c3cccc4cccc(c34)C2=O)CC1
[1]
  TGI: > 100 µM
[2]
  TGI: > 100 µM
[3]
  TGI: > 100 µM
[4]
  TGI: > 100 µM
[5]
  TGI: > 100 µM
[6]
  TGI: > 100 µM
[9]
  TGI: > 100 µM
[7]
  TGI: > 100 µM
